Key:
[1] = Solubility of sirolimus in water; settings: volume of 250 ml of gastrointestinal fluid
[2] = Stress stability testing in vials, sirolimus impurities by HPLC; format: physicochemical; parameters: Total sum of impurities / Max.unknown impurity: unit not given here
Experimental: The origination of a solid solution of sirolimus was checked by X-ray diffraction analysis and Raman microscopy. […] These were exposed then to stress stability testing at 60° C. for 14 days and at 40° C. and 75% relative humidity for one month in vials. The amount of degradation products formed was compared to the samples of commercially available tablets comprising sirolimus.
The HPLC analyses were performed with a Waters system equipped with a Synergi Max-RP, 5 μm, 250×4.6 mm column which was maintained in a column oven at 40° C. The mobile phase consisted of a 40:54:6 (V/V/V) mixture of CF3COOH/NaOH with pH 2.5, acetonitrile and water. The flow rate was 1.4 mL/min, and the detection wavelength was 278 nm.
For the stability studies, two solid solutions were prepared using ethanol-soluble polymers polyvinylpyrrolidone (PVP) or hydroxypropylcellulose (HPC). The chemical stability was monitored for 14 days at 60° C. and 1 month at 40° C. and 75% relative humidity. The samples were stored in vials.

[3] = as above; format: physicochemical; parameters: unit not given here; settings: 7 days, 60° C.
[4] = 1 month, 40° C./75% relative humidity, in vials

amount of sirolimus dissolved in gastrointestinal fluid [1] | chemical stability of sirolimus, comparison in words ([2]; stress stability testing, comparison between samples of Table 3) | Max.unknown impurity ([2]; time of testing 0) | Total sum of impurities ([2]; time of testing 0) | Max.unknown impurity [3] | Total sum of impurities [3] | Max.unknown impurity [2, 4] | Total sum of impurities [2, 4] | Max.unknown impurity ([2]; 14 days, 60° C., in vials) | Total sum of impurities ([2]; 14 days, 60° C., in vials) | SMILES
about 0.65 mg |  |  |  |  |  |  |  |  |  | CO[C@H]1C[C@@H]2CC[C@@H](C)[C@@](O)(O2)C(=O)C(=O)N2CCCC[C@H]2C(=O)O[C@H]([C@H](C)C[C@@H]2CC[C@@H](O)[C@H](OC)C2)CC(=O)[C@H](C)/C=C(\C)[C@@H](O)[C@@H](OC)C(=O)[C@H](C)C[C@H](C)/C=C/C=C/C=C/1C [Sirolimus, (3S,6R,7E,9R,10R,12R,14S,15E,17E,19E,21S,23S,26R,27R,34aS)-9,10,12,13, -14,21,22,23,24,25,26,27,32,33,34,34a-hexadecahydro-9,27-dihydroxy-3-[(1R)-2-[(1S,3R,4R)-4-hydroxy-3-methoxycyclohexyl]-1-methylethyl]-10,21-dimethox-y-6,8,12,14,20,26-hexamethyl-23,27-epoxy-3H-pyrido[2,1-c][1,4]oxaazacycloh-entriacontine-1,5,11,28,29(4H,6H,31H)-pentone]
 | significantly less stable | 0.25 | 3.34 | 1.91 | 9.09 |  |  |  |  | CO[C@H]1C[C@@H]2CC[C@@H](C)[C@@](O)(O2)C(=O)C(=O)N2CCCC[C@H]2C(=O)O[C@H]([C@H](C)C[C@@H]2CC[C@@H](O)[C@H](OC)C2)CC(=O)[C@H](C)/C=C(\C)[C@@H](O)[C@@H](OC)C(=O)[C@H](C)C[C@H](C)/C=C/C=C/C=C/1C [Example 1, sirolimus]
 |  | 0.19 | 0.70 |  |  | 0.26 | 0.59 | 0.26 | 0.60 | CO[C@H]1C[C@@H]2CC[C@@H](C)[C@@](O)(O2)C(=O)C(=O)N2CCCC[C@H]2C(=O)O[C@H]([C@H](C)C[C@@H]2CC[C@@H](O)[C@H](OC)C2)CC(=O)[C@H](C)/C=C(\C)[C@@H](O)[C@@H](OC)C(=O)[C@H](C)C[C@H](C)/C=C/C=C/C=C/1C [Substance in a crystal form, sirolimus]

Source: patent publication US8053444B2 (Lek Pharmaceuticals d.d., priority 2007, dated 2011)
